Source: patent publication US20260297065A1, “AROMATIC SUBSTITUENT-CONTAINING (HETERO) ARYL-IMIDAZOLE COMPOUND, AND PREPARATION METHOD THEREFOR AND USE THEREOF” (OPEN SOURCE THERAPEUTICS, priority 2022, published 2026)

Target: T1, soluble epoxide hydrolase (sEH) (Homo sapiens, UniProt P34913)
T1 sequence (P34913 1-555): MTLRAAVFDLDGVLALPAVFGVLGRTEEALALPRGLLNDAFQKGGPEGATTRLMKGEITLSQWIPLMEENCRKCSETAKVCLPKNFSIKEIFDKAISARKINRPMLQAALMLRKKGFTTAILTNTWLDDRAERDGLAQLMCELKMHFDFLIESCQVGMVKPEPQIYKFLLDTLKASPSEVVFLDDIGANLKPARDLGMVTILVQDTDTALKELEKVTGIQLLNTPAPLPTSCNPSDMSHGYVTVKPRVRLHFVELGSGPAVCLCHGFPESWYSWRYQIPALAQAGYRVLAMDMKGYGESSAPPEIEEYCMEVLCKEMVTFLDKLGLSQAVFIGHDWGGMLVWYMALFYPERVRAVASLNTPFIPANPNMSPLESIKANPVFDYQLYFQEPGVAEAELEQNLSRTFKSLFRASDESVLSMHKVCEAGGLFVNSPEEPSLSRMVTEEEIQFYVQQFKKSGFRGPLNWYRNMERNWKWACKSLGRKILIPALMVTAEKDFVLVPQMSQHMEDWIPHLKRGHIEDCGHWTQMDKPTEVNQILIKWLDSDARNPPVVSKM
Assay: in vitro biochemical activity test, sEH enzyme inhibition with EET substrate (LC-MS)
Conditions: 90 min pre-incubation at room temperature, 60 min reaction
Protocol: This example relates to the relationship between the structure and activity of (hetero)aryl imidazole compounds containing an aromatic substituent. Specifically, the biochemical activity of the (hetero)aryl imidazole compounds containing an aromatic substituent described in Example 1 as sEH enzyme inhibitors was evaluated by in vitro activity test experiments.
The experimental procedures for evaluating in vitro biochemical activity were described below.
The substrate used in the evaluation experiment was epoxyeicosatrienoic acid (EET). The solutions used in the evaluation experiments were Bis/Tris HCl 25 mM pH 7.0, Bis/Tris HCl 25 mM pH 7.0 containing 0.1 mg/mL BSA was used as buffer A, and Bis/Tris HCl 25 mM pH 7.0 containing 36.3 mM ZnSO4 was used as buffer B.
The specific steps of the evaluation experiment were as follows. 79 μL of buffer A was added to each well in a black 96-well plate and then 1 μL solution of the aromatic substituent-containing (hetero)aryl imidazole compound was added. Then, 10 μL sEH (1 μM) buffer A solution was added to the wells. After pre-incubation at room temperature for 90 min, 10 μL EET (10 μM) buffer A solution was added to trigger the reaction. After the mixture was allowed to react […] for 60 min, 15 μL buffer B and 180 μL acetonitrile were added to quench the reaction, followed by high-speed centrifugation and filtration for later use.
LC-MS was used to detect the concentration of EET in the samples. The final IC50 was calculated based on three independent experiments using Graphpad Prism software.

Row | IC50 [nM] | Structure (SMILES)
1 | 0.016 | CN(C)S(=O)(=O)c1ccc(-c2nc3cc(F)c(-c4cnc(N)nc4C(F)F)cc3[nH]2)cc1 [Compound 51, 4-(6-(4-(difluoromethyl)-2-aminopyrimid-5-yl)-5-fluoro-1H-benzo[d]imidazol-2-yl)-N,N-dimethylbenzenesulfon-amide]
2 | 0.089 | Nc1ncc(-c2cc3[nH]c(-c4ccc(C(F)(F)F)cc4)nc3c(F)c2F)c(C(F)F)n1 [Compound 68, 5-(2-(4-(trifluoromethyl)phen-yl)-4,5-difluoro-1H-benzo[d]-imidazol-6-yl)-4-(difluoro-methyl)pyrimidine-2-amine]
3 | 0.11 | Cc1nc(N(C)C)ncc1-c1cc2nc(-c3ccc(C(F)(F)F)cc3)[nH]c2cc1F [Compound 9, 5-(5-fluoro-2-(4-(trifluoro-methyl)phenyl)-1H-benzo[d]imidazol-6-yl)-N,N,4-trimeth-ylpyrimidine-2-amine]
4 | 0.77 | CC(C)n1ccnc1-c1cc2[nH]c(-c3ccc(C(F)(F)F)cc3)nc2c(F)c1F [Compound 72, 2-(4-(trifluoromethyl)phenyl)-6-(1-isopropyl-1H-imidazol-2-yl)-4,5-difluoro-1H-benzo[d] imidazole]
5 | 0.045 | CC(C)n1nccc1-c1cc2nc(-c3ccc(S(=O)(=O)N(C)C)cc3)[nH]c2c(F)c1F [Compound 25, 4-(4,5-difluoro-6-(1-isopropyl-1H-pyrazol-5-yl)-1H-benzo[d]imidazol-2-yl)-N,N-dimethyl-benzenesulfonamide]
6 | 0.29 | CC(=O)n1nc(C)c(-c2cc3nc(-c4ccc(C(F)(F)F)cc4)[nH]c3cc2F)c1C [Compound 23, 1-(4-(6-fluoro-2-(4-(trifluoro-methyl)phenyl)-1H-benzo[d]imidazol-5-yl)-3,5-dimethyl-1H-pyrazol-1-yl)ethan-1-one]
7 | 0.083 | Cc1ncc(-c2cc3nc(-c4ccc(S(=O)(=O)N(C)C)cc4)[nH]c3cc2F)c(C)n1 [Compound 29, 4-(6-(2,4-dimethylpyrimid-5-yl)-5-fluoro-1H-benzo[d]imidazol-2-yl)-N,N-dimethyl-benzenesulfonamide]
8 | 0.058 | Cc1ccc(-c2cc3nc(-c4ccc(C(F)(F)F)cc4)[nH]c3cc2F)c(Cl)n1 [Compound 12, 6-(2-chloro-6-methylpyridin-3-yl)-5-fluoro-2-(4-(trifluoro-methyl)phenyl)-1H-benzo[d] imidazole]
9 | 0.14 | Fc1cc2[nH]c(-c3ccc(C(F)(F)F)cc3)nc2cc1-c1cnc(N2CCOCC2)nc1 [Compound 16, 4-(5-(5-fluoro-2-(4-(trifluoro-methyl)phenyl)-1H-benzo[d]imidazol-6-yl)pyrimidine-2-yl)morpholine]
10 | 0.056 | Cc1nc(N)ncc1-c1cc2nc(-c3ccc(S(=O)(=O)N(C)C)cc3)[nH]c2c(F)c1F [Compound 27, 4-(6-(2-amino-4-methylpyr-imid-5-yl)-4,5-difluoro-1H-benzo[d]imidazol-2-yl)-N,N-dimethylbenzenesulfonamide]

Target: T1, soluble epoxide hydrolase (sEH)
Assay: PHOME assay activity test, sEH enzyme inhibition (fluorescence)
Format: biochemical
Conditions: PHOME 5 μM, pH 7.0; 10 min pre-incubation; test compound concentration range 20 nM-0.082 nM
Protocol: This example relates to the relationship between the structure and activity of (hetero)aryl imidazole compounds containing an aromatic substituent. Specifically, the biochemical activity of the (hetero)aryl imidazole compounds containing an aromatic substituent described herein as sEH enzyme inhibitors was evaluated by PHOME assay activity test experiment. The synthesis of the substrates and the test methods required for this test were all based on known literature reports (Analytical Biochemistry 2005, 343, 66-75).
The sEH enzyme activity inhibition experiment was performed in a low binding 96-well plate. The reaction system was 100 μL 25 mM Bis-Tris, pH 7.0, 0.1 mg/mL BSA buffer. The experimental steps of PHOME assay activity test were as follows.
First, a sEH enzyme solution with a final concentration of […] was mixed with compounds of different concentrations (test compound concentration range 20 nM-0.082 nM), and then pre-incubated on a shaker at room temperature for 10 min. The reaction was triggered by adding Phome fluorescent substrate at a final concentration of 5 μM and immediately placed in a Perkin Elmer microplate reader for dynamic monitoring for 1 hour at an excitation wavelength of 330 nm and an emission wavelength of 465 nm, with fluorescence readings at intervals of 1 minute. Graphpad Prism 9.0 software was used to calculate the slope of the fluorescence value increase in each well within 20 minutes, and the slope was used to calibrate the enzyme activity to calculate the inhibition rate of the compound on sEH enzyme activity under different concentration conditions. Finally, Graphpad Prism 9 was used to plot and calculate IC50 values.
The inhibitory activity IC50 values of some compounds against soluble epoxide hydrolase obtained by PHOME assay activity evaluation experiment are shown in Table 4.

Row | IC50 [nM] | Structure (SMILES)
11 | > 20 | Cc1nc(N2CC(O)C2)ncc1-c1cc2[nH]c(-c3ccc(S(=O)(=O)N(C)C)c(F)c3)nc2c(F)c1F [Compound 104, 4-(6-(4-methyl-2-(3-hydroxy-azetidin-1-yl)pyrimid-5-yl)-4,5-difluoro-1H-benzo[d]imidazol-2-yl)-2-fluoro-N,N-dimethylbenzenesulfonamide]
12 | 1.45 | Cc1nc(N)ncc1-c1nc2[nH]c(-c3ccc(C(F)(F)F)cc3)nc2cc1F [Compound 102, 4-methyl-5-(2-(4-(trifluoromethyl)phenyl)-6-fluoro-3H-imidazo[4,5-b]pyridin-5-yl)-pyrimidine-2-amine]
13 | < 0.082 | N#Cc1nc(N)ncc1-c1cc2[nH]c(-c3ccc(C(F)(F)F)cc3)nc2c(F)c1F [Compound 95, 2-amino-5-(2-(4-(trifluoro-methyl)phenyl)-4,5-difluoro-1H-benzo[d]imidazol-6-yl)-pyrimidine-4-carbonitrile]
14 | 0.35 | Nc1ncc(-c2cc3[nH]c(-c4ccc5c(c4)OC(F)(F)O5)nc3c(F)c2F)c(C(F)F)n1 [Compound 89, 5-(2-(2,2-difluorobenzo[d][1,3]dioxol-5-yl)-4,5-difluoro-1H-benzo[d]imidazol-6-yl)-4-(difluoromethyl)pyrimidine-2-amine]
15 | 0.092 | Cc1nc(CN2CCOCC2)ncc1-c1cc2[nH]c(-c3ccc(C(F)(F)F)cc3)nc2c(F)c1F [Compound 97, 4-((4-methyl-5-(2-(4-(trifluoro-methyl)phenyl)-4,5-difluoro-1H-benzo[d]imidazol-6-yl)-pyrimidine-2-yl)methyl)mor-pholine]
16 | 2.54 | Nc1ncc(-c2cc3[nH]c(-c4ccc(F)c(OC(F)(F)F)c4)nc3c(F)c2F)c(C(F)F)n1 [Compound 94, 5-(2-(3-(trifluoromethoxy)-4-fluorophenyl)-4,5-difluoro-1H-benzo[d]imidazol-6-yl)-4-(difluoromethyl)pyrimidine-2-amine]
17 | > 20 | Cc1nc(N2CC(C(=O)O)C2)ncc1-c1cc2[nH]c(-c3ccc(S(=O)(=O)N(C)C)c(F)c3)nc2c(F)c1F [Compound 105, 1-(4-methyl-5-(2-(3-fluoro-4-(N,N-dimethylsulfamoyl)phen-yl)-4,5-difluoro-1H-benzo[d]imidazol-6-yl)pyrimidine-2-yl)azetidine-3-carboxylic acid]
18 | 10.1 | Cc1nc(N)ncc1-c1cc2[nH]c(-c3ccc4oc(=O)n(C)c4c3)nc2c(F)c1F [Compound 100, 3-methyl-5-(6-(4-methyl-2-aminopyrimid-5-yl)-4,5-difluoro-1H-benzo[d]imid-azol-2-yl)benzo[d]oxazol-2(3H)-one]
19 | 0.65 | COCCNc1ncc(-c2cc3[nH]c(-c4ccc(C(F)(F)F)cc4)nc3c(F)c2F)c(C(F)F)n1 [Compound 88, 5-(2-(4-(trifluoromethyl)phen-yl)-4,5-difluoro-1H-benzo[d]imidazol-6-yl)-4-(difluoro-methyl)-N-(2-methoxyethyl)-pyrimidine-2-amine]
20 | < 0.082 | Cc1nc(N2CC(O)C2)ncc1-c1cc2[nH]c(-c3ccc(C(F)(F)F)cc3)nc2c(F)c1F [Compound 93, 1-(4-methyl-5-(2-(4-(trifluoro-methyl)phenyl)-4,5-difluoro-1H-benzo[d]imidazol-6-yl)-pyrimidine-2-yl)azetidin-3-ol]
21 | 0.35 | Cc1nc(N)ncc1-c1cc2[nH]c(-c3ccc(C(F)(F)F)cn3)nc2c(F)c1F [Compound 101, 4-methyl-5-(2-(5-(trifluoro-methyl)pyrid-2-yl)-4,5-difluoro-1H-benzo[d]imid-azol-6-yl)pyrimidine-2-amine]
22 | 0.11 | CC(=O)N1CCN(Cc2ncc(-c3cc4[nH]c(-c5ccc(C(F)(F)F)cc5)nc4c(F)c3F)c(C)n2)CC1 [Compound 98, 1-(4-((4-methyl-5-(2-(4-(trifluoromethyl)phenyl)-4,5-difluoro-1H-benzo[d]imid-azol-6-yl)pyrimidine-2-yl)-methyl)piperazin-1-yl)ethan-1-one]
23 | 0.61 | Fc1c(-c2cnc(NC3COC3)nc2C(F)F)cc2[nH]c(-c3ccc(C(F)(F)F)cc3)nc2c1F [Compound 91, 5-(2-(4-(trifluoromethyl)phen-yl)-4,5-difluoro-1H-benzo[d]imidazol-6-yl)-4-(difluoro-methyl)-N-(oxetan-3-yl)pyr-imidine-2-amine]
